This note sets out measurements from ChEMBL document CHEMBL2321687, “Identification of a novel arylpiperazine scaffold for fatty acid amide hydrolase inhibition with improved drug disposition properties” (Bioorg Med Chem Lett, 2013).

Test [1] deals with T1, Fatty-acid amide hydrolase 1 (Mus musculus, UniProt O08914).
T1 sequence (O08914 whole entry): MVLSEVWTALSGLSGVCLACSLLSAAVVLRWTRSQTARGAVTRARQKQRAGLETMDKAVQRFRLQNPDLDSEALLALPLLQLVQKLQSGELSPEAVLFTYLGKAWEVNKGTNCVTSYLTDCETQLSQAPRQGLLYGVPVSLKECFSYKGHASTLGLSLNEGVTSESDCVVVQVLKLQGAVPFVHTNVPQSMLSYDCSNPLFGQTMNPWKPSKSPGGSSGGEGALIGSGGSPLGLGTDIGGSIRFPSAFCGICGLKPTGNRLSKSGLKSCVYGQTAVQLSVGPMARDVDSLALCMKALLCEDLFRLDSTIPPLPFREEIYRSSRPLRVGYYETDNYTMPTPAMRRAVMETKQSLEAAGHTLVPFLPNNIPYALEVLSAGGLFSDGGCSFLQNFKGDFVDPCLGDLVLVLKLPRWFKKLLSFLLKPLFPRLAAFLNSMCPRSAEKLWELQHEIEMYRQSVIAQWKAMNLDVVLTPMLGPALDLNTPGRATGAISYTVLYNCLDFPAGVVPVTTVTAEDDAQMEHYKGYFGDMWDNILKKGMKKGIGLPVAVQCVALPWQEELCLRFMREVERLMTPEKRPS
The experiment in a line: Inhibition of FAAH in mouse brain homogenate using [3Hethanolamine]AEA as substrate incubated for 20 mins prior to substrate addition measured after 15 mins by beta counting analysis. It is filed as tissue-based.

The target in test [2] is T2, Fatty-acid amide hydrolase 1 (Homo sapiens, UniProt O00519).
T2 sequence (O00519 whole entry): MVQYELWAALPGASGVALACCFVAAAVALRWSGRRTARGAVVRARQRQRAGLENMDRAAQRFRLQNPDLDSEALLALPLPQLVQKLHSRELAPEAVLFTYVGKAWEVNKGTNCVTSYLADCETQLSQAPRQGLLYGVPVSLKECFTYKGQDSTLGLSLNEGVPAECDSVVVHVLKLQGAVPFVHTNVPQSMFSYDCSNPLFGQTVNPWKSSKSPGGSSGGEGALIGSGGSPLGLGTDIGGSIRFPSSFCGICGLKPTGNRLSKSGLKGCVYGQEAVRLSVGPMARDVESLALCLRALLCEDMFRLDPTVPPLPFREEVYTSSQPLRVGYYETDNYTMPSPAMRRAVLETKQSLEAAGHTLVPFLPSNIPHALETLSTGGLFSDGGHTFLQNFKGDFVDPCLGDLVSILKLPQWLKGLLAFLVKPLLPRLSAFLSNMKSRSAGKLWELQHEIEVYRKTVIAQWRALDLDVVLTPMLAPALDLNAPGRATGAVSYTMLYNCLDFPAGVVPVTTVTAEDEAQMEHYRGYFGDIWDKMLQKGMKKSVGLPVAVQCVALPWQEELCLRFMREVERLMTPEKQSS
The experiment in a line: Inhibition of human FAAH using [3Hethanolamine]AEA as substrate incubated for 20 mins prior to substrate addition measured after 15 mins by beta counting analysis.

Test [3] has as its target Fatty-acid amide hydrolase 1 (Mus musculus) (UniProt O08914). Put plainly: Reversible noncompetitive inhibition of FAAH in mouse brain homogenate using [3Hethanolamine]AEA as substrate incubated for 20 mins prior to dialysis for 18 hrs followed by substrate addition measured after 15 mins. It is filed as tissue-based.

Calls of active or inactive are those of the source. The calls are words filed in the database; no cut-off is given here.

Usually Ki stands for the equilibrium dissociation constant of an inhibitor or competing ligand from its target. The low end stands for a stronger hold on the target, the high end for a looser hold on the target. Consider `CCCCOc1ccc(NC(=O)Oc2cccc(N3CCNCC3)c2)cc1`, for which the Ki in test [1] was over 500 nM.
Still for that read-out and setting: the same measure for `NC(=O)c1ccn(-c2cccc(N3CCN(C(=O)NCCCCCCc4ccccc4)CC3)c2)c1`: over 500 nM; for `N#Cc1ccn(-c2cccc(N3CCN(CCCCCCc4ccccc4)CC3)c2)c1`: 270 nM.
In turn, `Fc1ccc(OCCCCOc2cccc(N3CCNCC3)c2)cc1` returned an inhibition constant (Ki) in test [1] of over 500 nM.
Molecule `CN1CCN(c2cccc(OC(=O)NCCCCCCc3ccccc3)c2)CC1` gave a Ki in test [1] of 240 nM. In other words, the sub-micromolar range.
Regarding `NC(=O)c1ccn(-c2cccc(C(=O)N3CCN(CCCCCCc4ccccc4)CC3)c2)c1`, the Ki in test [1] was over 500 nM.
The molecule `C/C(=N\OC(=O)N1CCCCC1)c1cccc(N2CCN(C)CC2)c1` showed a Ki in test [1] of over 500 nM.
In general, IC50 refers to the concentration that inhibits the measured activity by half. In test [1], `NC(=O)c1ccn(-c2cccc(N3CCN(CCCCCCc4ccccc4)CC3)c2)c1` returned a Ki of 10 nM. The IC50 in test [2] was over 1000 nM. In addition, the inhibition entry in test [3] is “Active”.
In the case of `O=C(NCCCCCCc1ccccc1)N1CCN(c2cccc(-n3cccc3)c2)CC1`, the inhibitory constant (Ki) in test [1] amounted to 263 nM.
Take `O=C(NCCCCCCc1ccccc1)Oc1cccc(N2CCNCC2)c1`: affinity in test [1] was put at a Ki of 13 nM. Further, in test [2], the IC50 stood at 44 nM and the affinity, expressed as Ki, was 26 nM. Further, in test [3], the inhibition entry was “Active”.
